Measurements: article PMC6329299 (The pharmacogenomics journal, 2015)
Changes are numbered by the printed parent chain. Where a name gives a salt, the structure may show the parent alone.

Experiments:
[1] = Hydrolysis by human intestine s9 fractions; type: in vitro ADME; details: substrate 100 μM, 3 concentrations of HIS9
[2] = Hydrolysis by human kidney s9 fractions; type: in vitro ADME; details: substrate 100 μM, 3 concentrations of HKS9
[3] = target: T1, CES1 in individual human liver s9 fractions (Homo sapiens, UniProt P23141); type: in vitro ADME; details: 143G/G livers; HLS9 0.5 mg/ml, enalapril 500 μM, 37 °C, 10 min
T1 sequence (P23141 18-567): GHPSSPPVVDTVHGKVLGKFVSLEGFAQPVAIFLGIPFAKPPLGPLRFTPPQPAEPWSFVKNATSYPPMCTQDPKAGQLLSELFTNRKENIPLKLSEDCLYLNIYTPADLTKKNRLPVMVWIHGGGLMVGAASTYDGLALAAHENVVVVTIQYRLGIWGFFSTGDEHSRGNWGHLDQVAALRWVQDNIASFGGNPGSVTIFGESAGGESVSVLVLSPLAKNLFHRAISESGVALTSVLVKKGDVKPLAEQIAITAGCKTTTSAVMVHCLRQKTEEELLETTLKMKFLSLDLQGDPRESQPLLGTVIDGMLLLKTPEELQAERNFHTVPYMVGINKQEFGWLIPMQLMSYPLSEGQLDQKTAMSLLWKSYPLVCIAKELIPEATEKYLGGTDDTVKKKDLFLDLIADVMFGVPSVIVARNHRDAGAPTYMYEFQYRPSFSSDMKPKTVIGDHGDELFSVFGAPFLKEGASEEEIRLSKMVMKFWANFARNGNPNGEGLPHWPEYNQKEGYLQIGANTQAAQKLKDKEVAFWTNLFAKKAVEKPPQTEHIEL

[4] = system: CES1 in individual human liver s9 fractions; type: in vitro ADME
CES1 variant G19V = target: T2, CES1 variant G19V (Homo sapiens, UniProt P23141, G18V); assay: Enalapril hydrolysis by CES1 variant G19V transfected cell s9; type: in vitro ADME; details: enalapril 500 μM
T2 sequence (P23141 18-568 isoform P23141-2 G19V limits assumed): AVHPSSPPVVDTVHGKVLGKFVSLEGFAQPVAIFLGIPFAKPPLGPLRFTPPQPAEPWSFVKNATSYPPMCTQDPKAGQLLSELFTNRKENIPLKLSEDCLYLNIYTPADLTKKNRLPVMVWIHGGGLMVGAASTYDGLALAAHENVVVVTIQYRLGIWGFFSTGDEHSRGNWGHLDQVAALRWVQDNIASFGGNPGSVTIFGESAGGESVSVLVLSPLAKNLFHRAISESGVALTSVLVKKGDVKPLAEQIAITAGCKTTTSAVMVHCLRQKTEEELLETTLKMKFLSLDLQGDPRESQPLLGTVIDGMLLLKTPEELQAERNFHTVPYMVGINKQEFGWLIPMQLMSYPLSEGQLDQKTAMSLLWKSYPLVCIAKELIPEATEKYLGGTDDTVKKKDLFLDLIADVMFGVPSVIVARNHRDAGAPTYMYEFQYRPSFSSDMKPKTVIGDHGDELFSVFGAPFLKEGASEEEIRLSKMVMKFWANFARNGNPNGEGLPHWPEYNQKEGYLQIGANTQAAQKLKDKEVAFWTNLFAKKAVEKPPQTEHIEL

CES1 variant S83L = target: T3, CES1 variant S83L (Homo sapiens, UniProt P23141, S82L); assay: Enalapril hydrolysis by CES1 variant S83L transfected cell s9; type: in vitro ADME; details: enalapril 500 μM
T3 sequence (P23141 18-568 isoform P23141-2 S83L limits assumed): T2 sequence (P23141 18-568 isoform P23141-2 G19V limits assumed) with V2G, S66L

CES1 variant A270S = target: T4, CES1 variant A270S (Homo sapiens, UniProt P23141, A269S); assay: Enalapril hydrolysis by CES1 variant A270S transfected cell s9; type: in vitro ADME; details: enalapril 500 μM
T4 sequence (P23141 18-568 isoform P23141-2 A270S limits assumed): T2 sequence (P23141 18-568 isoform P23141-2 G19V limits assumed) with V2G, A253S

[5] = human, pH 7.4
[6] = human liver samples, enalapril 500 μM

CCOC(=O)[C@H](CCc1ccccc1)N[C@@H](C)C(=O)N1CCC[C@H]1C(=O)O [Enalapril, Enalapril maleate]
Hydrolysis by human intestine s9 fractions [1]: No appreciable activation
Hydrolysis by human kidney s9 fractions [2]: No appreciable activation
enalapril activation rate [3]: 55.4±37.3 pmole/min/mg protein
CES1 activity in the null-CES1 liver samples (some G143E non-carriers) ([4]; CES1 expression comparable to pooled HLS9): null CES1 activity
CES1 activity on enalapril activation, 143G/E livers as fraction of 143G/G ([4]; human liver samples): approximately 1/3
CES1 activity on enalapril activation between CES1P1/CES1P1, CES1P1/CES1P1VAR and CES1P1VAR/CES1P1VAR genotypes [4, 6]: no significant differences
CES1 activity on enalapril hydrolysis among CES1/CES1, CES1/CES1VAR and CES1VAR/CES1VAR genotypes [4, 6]: comparable
CES1 activity on enalapril activation within the nine CES1/CES1P1 diplotypes ([4]; one way ANOVA, activity P=0.549): no significant differences
Catalytic activity of G19V on enalapril activation vs WT CES1 (CES1 variant G19V): comparable to the WT CES1
Catalytic activity of S83L on enalapril activation vs WT CES1 (CES1 variant S83L): comparable to the WT CES1
Catalytic activity of A270S on enalapril activation vs WT CES1 (CES1 variant A270S): comparable to the WT CES1
Clint (Vmax/Km) [5]: 1.1 μl/min/mg protein
Vmax (Hydrolysis; HLS9, PBS pH 7.4, 37 °C, unit for enalapril): 67.5 ± 1.3 pmole/min/mg protein
Km (Hydrolysis; human, pooled human liver s9 fractions (HLS9), pH 7.4): 60.1 ± 4.2 µM
Hydrolysis to active metabolite by human liver s9 fractions (Hydrolysis; prodrug 100 μM, 3 concentrations of HLS9): efficiently hydrolyzed
